According to patent publication US7071178B2, “Use of vitamin D-derivatives in the treatment of osteoporosis and related bone disorders, as well as novel vitamin D3-derivatives” (Leo Pharmaceutical Products, Ltd., priority 2000, dated 2006):

System: OVX rats
Assay: OVX rat model on osteoporosis: serum calcium
Assay type: in vivo
Design: key to Effect on serum calcium vs 1,25D3: <: less effect than the reference dose of 1,25D3 (0.25 ug/kg); <=: less or the same effect as the reference dose of 1,25D3 (0.25 ug/kg); =: same effect as the reference dose of 1,25D3 (0.25 ug/kg); =>: same or better effect as the reference dose of 1,25D3 (0.25 ug/kg); >: better effect than the reference dose of 1,25D3 (0.25 ug/kg)
Conditions: for Effect on serum calcium vs 1,25D3 / Effect on serum calcium vs Ovx contr: oral 28 days
Description: Pharmacological Methods—OVX Rat Model on Osteoporosis
To study bone anabolic properties and the effects of the vitamin D analogues of the present invention in preventing or treating demineralisation of the skeleton in vivo, a 4 weeks OVX rat model was used:
An ovariectomized rat model (OVX model), orally dosed for 28 days is useful for screening of vitamin D analogues. In this model ovariectomy produces alterations in the cancellous network identical to those seen in the human skeleton during ageing and the menopause. Besides this the model and the following analyses can be performed under very standardised conditions. 1α,25(OH)2D3 is used as a reference compound.
Female Sprague Dawley rats weighing approximately 130 g (40–45 days old) were purchased from MB, Ejby, Denmark. The animals were fed a commercial diet and allowed free access to food and drinking water. The animals were split into groups receiving differential treatment.
The animals were anaesthetised and ovariectomized through a dorsal incision.
Treatment of OVX animals was started 2 weeks after ovariectomy.
The animals were dosed orally for 28 days. The oral dosage was by gavage 0.1 ml/100 g bodyweight. The bodyweight of each animal was recorded every day prior to oral dosing. On day 7, 14, 21 and 28 the animals were housed separately for 24 hours in metabolic cages for collection of urine. Urine was frozen at −20° C. for later calcium measurement.
At day 28 the animals were anaesthetised and 2 ml of blood was obtained either by heart puncture or from the orbital vein, after this the animals were euthanized by CO2. The serum fraction was then removed and frozen at −20° C. for later measurement of calcium, phosphorous and creatinine.
Effect of Compound 145 compared to the reference dose of 1,25(OH)2D3 (1,25D3) (0.25 μg/kg) and compared to the OVX control group (shown in %) are shown in Tables 1 to 4.

Effect on serum calcium vs 1,25D3 (1 μg/kg, MTR/16): No | Effect on serum calcium vs Ovx contr (1 μg/kg, MTR/16): 0% | Effect on serum calcium vs 1,25D3 (10 μg/kg, MTR/16): No | Effect on serum calcium vs Ovx contr (10 μg/kg, MTR/16): 3% | Effect on serum calcium vs 1,25D3 (10 μg/kg, MTR/23): < | Effect on serum calcium vs Ovx contr (10 μg/kg, MTR/23): 6% | Effect on serum calcium vs 1,25D3 (25 μg/kg, MTR/27): < | Effect on serum calcium vs Ovx contr (25 μg/kg, MTR/27): 11% | Effect on serum calcium vs 1,25D3 (50 μg/kg, MTR/23): No | Effect on serum calcium vs Ovx contr (50 μg/kg, MTR/23): 2% | Effect on serum calcium vs 1,25D3 (50 μg/kg, MTR/27): = | Effect on serum calcium vs Ovx contr (50 μg/kg, MTR/27): 18% | Effect on serum calcium vs 1,25D3 (75 μg/kg, MTR/27): = | Effect on serum calcium vs Ovx contr (75 μg/kg, MTR/27): 20% | Effect on serum calcium vs 1,25D3 (100 μg/kg, MTR/23): No | Effect on serum calcium vs Ovx contr (100 μg/kg, MTR/23): −5%
SMILES: C=C1C(=CC=C2CCCC3(C)C2CCC3C(C)CSc2ccc(C(C)(C)O)cc2)CC(O)CC1O [Compound 145, 1(S),3(R)-Dihydroxy-20(R)-(4-((1-hydroxy-1-methyl)ethyl)phenylthiomethyl)-9,10-seco-pregna-5(Z),7(E),10(19)-triene]
calcaemic effect (adverse effect) compared to 1,25D3 (summary of Tables 1 to 4): reduced
